Test results from PMC4933725, “Traxoprodil, a selective antagonist of the NR2B subunit of the NMDA receptor, potentiates the antidepressant-like effects of certain antidepressant drugs in the forced swim test in mice” (Metabolic Brain Disease, 2016).
Where a name gives a salt, the structure may show the parent alone. Each block holds one compound with its values, some of them ahead of it.

Assays:
mice [1] = assay: Forced swim test (FST) in mice; type: in vivo, Albino Swiss mice; details: for immobility time in FST vs control group: Fig. 1
Method: Each mouse was placed individually into a glass cylinder (height 25 cm, diameter 10 cm) containing 12–15 cm of water at 23–25 °C. The animal was left in the cylinder for 6 min. The total duration of immobility was recorded during the last 4 min of the 6-min testing period. The mouse was judged to be immobile when it ceased struggling and remained floating motionless in the water, making only the movements necessary to keep its head above the water level.

mice [2] = assay: Spontaneous locomotor activity (Opto-Varimex-4 Auto-Track); type: in vivo, Albino Swiss mice; details: for Distance traveled: mean ± SEM; for effects on locomotor activity: administered either alone or combined together, doses of Table 2 (traxoprodil 10 and 20 mg/kg), two-way ANOVA
Method: In order to avoid the risk of obtaining the false positive/negative effects in the FST caused by a possible influence of the tested drugs on the locomotor activity, spontaneous locomotor activity was measured using an animal activity meter Opto-Varimex-4 Auto-Track (Columbus Instruments, USA). The device consists of four transparent cages with a lid (43 × 43 × 32 cm), a set of four infrared emitters (each emitter has 16 laser beams), and four detectors monitoring animal movements. Each mouse was placed individually into the cage for 10 min. Spontaneous locomotor activity was evaluated between the 2nd and the 6th min, which corresponds with the time interval analyzed in the FST.
The results obtained in this test were presented as an arithmetic average distance (given in cm) traveled by a mouse ± SEM for each experimental group.

[3] = Determination of antidepressants and traxoprodil in brains by HPLC; details: for Antidepressants concentration in brain / concentration at 60 min: 60 min before decapitation, mean ± SEM; for change of concentration in brain tissue after joint administration with traxoprodil: traxoprodil 10 mg/kg co-administered, Student's t-test vs drug + saline; for concentration at 60 min: Albino Swiss, mouse, brain, intraperitoneal
Method: Sixty minutes following administration of studied antidepressant drugs with or without traxoprodil, mice were decapitated to collect brains for pharmacokinetic studies. Immediately after the decapitation, the brains were dissected from the skull, washed with 0.9 % NaCl and frozen at −25 °C.
Brain concentrations of the studied antidepressants and traxoprodil were assayed by high performance liquid chromatography (HPLC) methods. The brains were homogenized in distilled water (1 : 4, w/v) with a tissue homogenizer TH220 (Omni International, Inc., Warrenton, VA, USA). For all studied antidepressant drugs, the extraction from brain homogenates were performed using the mixture of ethyl acetate : hexane (30 : 70, v/v). Amitriptyline (2 μg/ml) was used as an internal standard (IS) for imipramine and paroxetine (200 ng/ml) for fluoxetine and escitalopram. In order to isolate imipramine and its metabolite desipramine, to brain homogenate (0.5 ml) containing these drugs the IS was added and the samples were alkalized with 250 μl of 4 M NaOH. Then the samples were extracted with 5 ml of the extraction reagent by shaking for 20 min (IKA Vibrax VXR, Germany). After centrifugation at 3000 rpm for 20 min (Universal 32, Hettich, Germany), the organic layer was transferred to a new tube containing a 200 μl solution of 0.1 M H2SO4 and methanol (90 : 10, v/v), shaken for 0.5 h and then centrifuged for 15 min (3000 rpm). The organic layer was discarded and a 50 μl aliquot of the acidic solution was injected into the HPLC system. In the case of escitalopram, the procedure was similar with the exception that the extraction with an organic reagent was repeated two times, 1 ml of brain homogenate was used, and the volume of the acidic phase was 100 μl. In turn, to 1 ml of brain homogenates containing fluoxetine the IS was added and the samples were alkalized with 500 μl of 4 M NaOH. After the addition of 1 ml of the concentrated NaCl solution (10 g/50 ml), the samples were vortexed for 15 s and 5 ml of the extraction reagent was added. Then the samples were shaken for 20 min and centrifuged for 15 min at 3000 rpm. After the centrifugation, the organic layer was transferred into a conical glass tube and evaporated to dryness at 37 °C under a gentle stream of nitrogen in a water bath. The residue was dissolved with 100 μl of methanol and 50 μl of this solution was injected into the HPLC system.
The HPLC system (Thermo Separation Products, San Jose, CA, USA) consisted of a P100 isocratic pump, a UV100 variable-wavelength UV/VIS detector, a Rheodyne 7125 injector (Rheodyne, Cotati, CA, USA) with a 50 μl sample loop, and a Chromjet SP4400 computing integrator.
All analyses were performed on a 250 × 4.0 mm LiChrospher®100 RP-18 column with a particle size of 5 μm (Merck, Darmstadt, Germany) protected with a guard column (4 × 4 mm) with the same packing material. The mobile phase consisting of 50 mM potassium dihydrogen phosphate buffer (pH = 4.5) and acetonitrile was mixed at a ratio of 60 : 40 (v/v) for imipramine and fluoxetine, and 65 : 35 (v/v) for escitalopram and run at 1 ml/min. Chromatographic analysis was carried out at 21 °C and the analytical wavelength of 227 nm for fluoxetine, 240 nm for escitalopram, and 214 nm for imipramine.
In order to determine traxoprodil concentrations in mice brain, to 1 ml of brain homogenate containing this compound 2 ml of methanol was added and the samples were briefly vortexed and then shaken vigorously for 10 min (IKA Vibrax VXR, Germany) to precipitate proteins. After centrifugation for 20 min at 3000 rpm the supernatant (2 ml) was transferred into a conical glass tube and evaporated to dryness at 45 °C under a gentle stream of nitrogen in a water bath. The residue was dissolved with 100 μl of methanol and 40 μl of this solution were injected into the HPLC system.

mice [4] = tested on: mice; parameters: method as in Poleszak et al. [2013]; details: ref Poleszak et al. [2013]; cited from earlier work

Compound: N[C@@H](Cc1ccc(Cl)cc1)C(=O)O (racemic) [p-CPA, p-chlorophenylalanine]
immobility time in FST (mice [1]; p-CPA 200 mg/kg i.p. per 3 days, alone, Fig. 3a): no effect
Distance traveled (mice [2]; Table 2 (E): p-CPA 200 mg/kg i.p. once daily over three days + saline): 656.4 ± 107.4 cm
effects on locomotor activity (mice [2]): no statistically significant effects

Compound: COc1ccccc1N1CCN(CCN(C(=O)C2CCCCC2)c2ccccn2)CC1 [WAY 100,635]
immobility time in FST (mice [1]; WAY 100,635 0.1 mg/kg i.p. alone, Fig. 3b): no effect
Distance traveled (mice [2]; Table 2 (F): WAY 0.1 mg/kg + saline i.p.): 639.0 ± 59.16 cm
effects on locomotor activity (mice [2]): no statistically significant effects

Antidepressants concentration in brain ([3]; imipramine 15 mg/kg + saline i.p., n=10): (101.0 ± 19.86) ng/g
Antidepressants concentration in brain ([3]; imipramine 15 mg/kg + traxoprodil 10 mg/kg i.p., n=10): (724.0 ± 109.0***) ng/g
change of concentration in brain tissue after joint administration with traxoprodil [3]: significant increase
Compound: CNCCCN1c2ccccc2CCc2ccccc21 [desipramine]

concentration at 60 min ([3]; 2 mg/kg, Antidepressants concentration in brain, escitalopram 2 mg/kg + saline i.p., n=10): 296 ± 17.7 ng/g
concentration at 60 min ([3]; Antidepressants concentration in brain, escitalopram 2 mg/kg + traxoprodil 10 mg/kg i.p., n=10): 361 ± 20.5 ng/g
change of concentration in brain tissue after joint administration with traxoprodil [3]: significant increase
Compound: CN(C)CCC[C@@]1(c2ccc(F)cc2)OCc2cc(C#N)ccc21 [escitalopram, escitalopram oxalate]
immobility time in FST (mice [1]; escitalopram 2 mg/kg given alone i.p., Fig. 2c): no effect
Distance traveled (mice [2]; Table 2 (C): escitalopram 2 mg/kg + saline i.p.): 957.1 ± 174.1 cm
effects on locomotor activity (mice [2]): no statistically significant effects

Compound: CNCCC(Oc1ccc(C(F)(F)F)cc1)c1ccccc1 (centres unmarked) [fluoxetine, fluoxetine hydrochloride]
immobility time in FST (mice [1]; fluoxetine 5 mg/kg given alone i.p., Fig. 2b): no effect
Distance traveled (mice [2]; Table 2 (B): fluoxetine 5 mg/kg + saline i.p.): 667.8 ± 111.1 cm
effects on locomotor activity (mice [2]): no statistically significant effects

Compound: CC(C(O)c1ccc(O)cc1)N1CCC(Cc2ccccc2)CC1 (centres unmarked) [ifenprodil]
dose range with antidepressant effect in the FST (mice [4]): 20 to 40 mg/kg

concentration at 60 min ([3]; 15 mg/kg, Antidepressants concentration in brain, imipramine 15 mg/kg + saline i.p., n=10): 2060 ± 253 ng/g
concentration at 60 min ([3]; Antidepressants concentration in brain, imipramine 15 mg/kg + traxoprodil 10 mg/kg i.p., n=10): 3210 ± 374 ng/g
Compound: CN(C)CCCN1c2ccccc2CCc2ccccc21 [imipramine, imipramine hydrochloride]
immobility time in FST (mice [1]; imipramine 15 mg/kg given alone i.p., Fig. 2a): no effect
Distance traveled (mice [2]; Table 2 (A): imipramine 15 mg/kg + saline i.p.): 492.3 ± 57.11 cm
effects on locomotor activity (mice [2]): no statistically significant effects
Distance traveled (mice [2]; imipramine 30 mg/kg i.p. 60 min before test, 2nd-6th min, n=8, Table 1): 653.9 ± 99.38 cm

Compound: CCOc1ccccc1OC(c1ccccc1)C1CNCCO1 (centres unmarked) [reboxetine, reboxetine mesylate]
immobility time in FST (mice [1]; reboxetine 2.5 mg/kg given alone i.p., Fig. 2d): no effect
Distance traveled (mice [2]; Table 2 (D): reboxetine 2.5 mg/kg + saline i.p.): 566.1 ± 54.75 cm

Compound: Cc1nc2sccn2c(=O)c1CCN1CCC(=C(c2ccc(F)cc2)c2ccc(F)cc2)CC1 [ritanserin]
immobility time in FST (mice [1]; ritanserin 4 mg/kg i.p. alone, Fig. 3c): no effect
Distance traveled (mice [2]; Table 2 (G): ritanserin 4 mg/kg + saline i.p.): 607.5 ± 79.78 cm
effects on locomotor activity (mice [2]): no statistically significant effects

concentration at 60 min ([3]; 10 mg/kg, Traxoprodil concentration in brain, traxoprodil 10 mg/kg + saline ip, n=7–8): 76.4 ± 13.5 ng/g
concentration at 60 min ([3]; Traxoprodil concentration in brain, traxoprodil 10 mg/kg + escitalopram 2 mg/kg ip): 249 ± 49.2 ng/g
concentration at 60 min ([3]; Traxoprodil concentration in brain, traxoprodil 10 mg/kg + fluoxetine 5 mg/kg ip): 151 ± 10.3 ng/g
concentration at 60 min ([3]; Traxoprodil concentration in brain, traxoprodil 10 mg/kg + imipramine 15 mg/kg ip): 119 ± 22.5 ng/g
change of traxoprodil concentration in brain ([3]; joint administration with escitalopram vs traxoprodil group, t-test p < 0.01): significant increase
change of traxoprodil concentration in brain ([3]; joint administration with fluoxetine vs traxoprodil group, t-test p < 0.001): significant increase
change of traxoprodil concentration in brain ([3]; joint administration with imipramine vs traxoprodil group, t-test p > 0.05): No statistically significant changes
Compound: C[C@@H]([C@@H](O)c1ccc(O)cc1)N1CCC(O)(c2ccccc2)CC1 [traxoprodil]
FST effect compared with imipramine at an active dose (mice [1]; highest traxoprodil dose used (40 mg/kg) vs imipramine 30 mg/kg): effect similar to the action of imipramine
immobility time in FST vs control group (mice [1]; traxoprodil 5 mg/kg i.p. 60 min before test): no statistically significant effect
immobility time in FST (mice [1]; traxoprodil 10 mg/kg given alone i.p., Fig. 2a): no effect
immobility time in FST vs control group (mice [1]; traxoprodil 10 mg/kg i.p. 60 min before test): no statistically significant effect
immobility time in FST vs control group (mice [1]; traxoprodil 20 mg/kg i.p. 60 min before test): significantly reduced
immobility time in FST (mice [1]; traxoprodil 20 mg/kg i.p., WAY 100,635 experiment, Fig. 3b): significantly reduced
immobility time in FST (mice [1]; traxoprodil 20 mg/kg i.p., p-CPA experiment, Fig. 3a): significantly reduced
immobility time in FST (mice [1]; traxoprodil 20 mg/kg i.p., ritanserin experiment, Fig. 3c): significantly reduced
immobility time in FST vs control group (mice [1]; traxoprodil 40 mg/kg i.p. 60 min before test): significantly reduced
Distance traveled (mice [2]; Table 2 (A): traxoprodil 10 mg/kg + saline i.p.): 629.1 ± 79.29 cm
Distance traveled (mice [2]; Table 2 (B): traxoprodil 10 mg/kg + saline i.p.): 629.1 ± 79.29 cm
Distance traveled (mice [2]; Table 2 (C): traxoprodil 10 mg/kg + saline i.p.): 986.8 ± 278.5 cm
Distance traveled (mice [2]; Table 2 (D): traxoprodil 10 mg/kg + saline i.p.): 629.1 ± 79.29 cm
Distance traveled (mice [2]; Table 2 (E): traxoprodil 20 mg/kg + saline i.p.): 731.1 ± 145.1 cm
Distance traveled (mice [2]; Table 2 (F): traxoprodil 20 mg/kg + saline i.p.): 687.5 ± 71.45 cm
Distance traveled (mice [2]; Table 2 (G): traxoprodil 20 mg/kg + saline i.p.): 687.5 ± 71.45 cm
effects on locomotor activity (mice [2]): no statistically significant effects
effect on locomotor activity versus control group (mice [2]; all tested doses (5, 10, 20, and 40 mg/kg), one-way ANOVA): no statistically significant effect
Distance traveled (mice [2]; traxoprodil 5 mg/kg i.p. 60 min before test, 2nd-6th min, n=8, Table 1): 915.0 ± 92.10 cm
Distance traveled (mice [2]; traxoprodil 10 mg/kg i.p. 60 min before test, 2nd-6th min, n=8, Table 1): 738.5 ± 49.93 cm
Distance traveled (mice [2]; traxoprodil 20 mg/kg i.p. 60 min before test, 2nd-6th min, n=8, Table 1): 912.0 ± 75.87 cm
Distance traveled (mice [2]; traxoprodil 40 mg/kg i.p. 60 min before test, 2nd-6th min, n=8, Table 1): 789.1 ± 119.8 cm
